Experimental data reported in ChEMBL document CHEMBL5096149, “Recent Update on Targeting c-MYC G-Quadruplexes by Small Molecules for Anticancer Therapeutics” (J Med Chem, 2021).

Experiments:
[1] = test system: Quadruplex DNA; test: Binding affinity to human c-MYC G-quadruplex (Pu24T) DNA assessed as first order binding constant by fluorescence spectroscopy; type: nucleic-acid assay
[2] = test system: Quadruplex DNA; test: Thermal stabilization of human c-MYC G-quadruplex (Pu24T) DNA assessed as change in melting temperature at 1:2 ratio by circular dichroism spectroscopy; type: nucleic-acid assay
[3] = test system: Quadruplex DNA; test: Binding affinity to human c-MYC G-quadruplex (Pu24T) DNA assessed as second order binding constant by isothermal titration calorimetry method; type: nucleic-acid assay
[4] = test system: Quadruplex DNA; test: Binding affinity to human c-MYC G-quadruplex (Pu24T) DNA assessed as second order binding constant by fluorescence spectroscopy; type: nucleic-acid assay
[5] = Cytotoxicity against human HEK cells assessed as inhibition of cell viability incubated for 48 hrs by MTT assay; type: functional, cell-based; details: HEK293, 48 h
[6] = test system: Quadruplex DNA; test: Binding affinity to human c-MYC G-quadruplex (Pu24T) DNA assessed as first order binding constant by isothermal titration calorimetry method; type: nucleic-acid assay
[7] = test system: HeLa; test: Cytotoxicity against human HeLa cells assessed as inhibition of cell viability incubated for 48 hrs by MTT assay; type: functional, cell-based
[8] = test system: Quadruplex DNA; test: Thermal stabilization of c-MYC G-quadruplex DNA (unknown origin) assessed as change in melting temperature at 1:5 ratio by FRET melting assay; type: nucleic-acid assay
[9] = test system: Quadruplex DNA; test: Binding affinity to c-MYC G-quadruplex DNA (unknown origin) assessed as association constant by fluorescence spectroscopy; type: nucleic-acid assay
[10] = test system: HT-1080; test: Antiproliferative activity against human HT-1080 cells assessed as inhibition of cell growth by celltiter-glo luminescent cell viability assay; type: functional, cell-based
[11] = test system: A549; test: Antiproliferative activity against human A549 cells assessed as inhibition of cell growth by XTT assay; type: functional, cell-based
[12] = test system: HeLa; test: Antiproliferative activity against human HeLa cells assessed as inhibition of cell growth by XTT assay; type: functional, cell-based
[13] = test system: MCF7; test: Antiproliferative activity against human MCF7 cells assessed as inhibition of cell growth by XTT assay; type: functional, cell-based
[14] = Antiproliferative activity against human Kidney epithelial cells assessed as inhibition of cell growth by XTT assay; type: toxicity, cell-based
[15] = test system: Quadruplex DNA; test: Binding affinity to c-MYC G-quadruplex DNA (unknown origin) assessed as association rate constant by isothermal titration calorimetry method; type: nucleic-acid assay

O=c1c(O)c(-c2ccc(O)c(O)c2)oc2cc(O)cc(O)c12 [QUERCETIN]
K [1]: 0.72 10^7/M | ΔTm [2]: 10.3 °C | K [3]: 8.5 10^5/M | K [4]: 1.2 10^5/M | IC50 [5]: 0.12 µM | K [6]: 1.57 10^7/M | IC50 [7]: 4 µM

CN(C)c1cccc2c(S(=O)(=O)N(Cc3cn(C(C)(C)C(=O)OC[C@H]4O[C@@H](n5cnc6c(=O)[nH]c(N)nc65)[C@@H]5OC(C)(C)O[C@@H]54)nn3)Cc3cn(C(C)(C)C(=O)OC[C@H]4O[C@@H](n5cnc6c(=O)[nH]c(N)nc65)[C@@H]5OC(C)(C)O[C@@H]54)nn3)cccc12
ΔTm [8]: 12.6 °C | Ka [9]: 4.8 10^7/M | IC50 [10]: 18.9 µM

CN(C)CCCOc1cc(C(=O)NCc2cn(-c3cccc(NC(=O)C4CCCN4)c3)nn2)cc(C(=O)NCc2cn(-c3cccc(NC(=O)C4CCCN4)c3)nn2)c1 (configuration not stated)
IC50 [11]: 9.2 µM | IC50 [12]: 8.3 µM | ΔTm [8]: 15 °C | IC50 [13]: 3.8 µM | Ka [9]: 5.55 10^5/M | IC50 [14]: > 50 µM | Ka [15]: 7 10^5/M
